Results from patent US11787839B2, “Targeting α2δ-1-bound glutamate receptors for treating diseases and disorders” (Board of Regents, The University of Texas System, priority 2017, dated 2023).
“Also recorded” adds a separate entry of the source.

Assays:
[1] = system: rats treated with the Cacna2d1 vector; experiment: Withdrawal thresholds in rats overexpressing Cacna2d1 (lentiviral vector); type: in vivo, rat; details: for pain hypersensitivity induced by Cacna2d1 overexpression (tactile and pressure withdrawal thresholds): Cacna2d1 vector rats, AP5, peptide, gabapentin intrathecal, memantine systemic
[2] = target: T1, α2δ-1 and NMDAR subunits in spinal cord synaptosomes (Rattus norvegicus, UniProt P35439+Q00959+Q00960); experiment: Protein levels in spinal cord synaptosomes of treated slices (SNL, sham); type: cell-based; details: SNL rats; slices treated 30 min
T1 construct: from tissue; host or cells: rat lumbar spinal cord slices (lamina II neurons) and synaptosomes made from them
Method: PSD-95, a known postsynaptic protein, was used as an internal control.
Spinal cord synaptosome preparation: The spinal cord slices were pooled from 2 rats and were homogenized using glass-Teflon homogenizer in 10 volumes of ice-cold HEPES-buffered sucrose (0.32 M sucrose, 1 mM EGTA, and 4 mM HEPES at pH 7.4) containing the protease inhibitor cocktail (Sigma-Aldrich). The homogenate was centrifuged at 1,000×g for 10 min at 4° C. to remove the nuclei and large debris. […] The synaptosomal pellet was lysed via hypo-osmotic shock in 9 volumes of ice-cold HEPES-buffer with the protease inhibitor cocktail for 30 min. The lysate was centrifuged at 25,000×g for 20 min at 4° C. to obtain the synaptosomal membrane fraction, which was then dissolved in sodium dodecyl sulfate sample buffer at a final concentration of 0.25 μg/μl for immunoblotting. […] The α2δ-1Tat peptide and scrambled control peptide were synthesized by Bio Basic Inc. (Marham, Ontario, Canada) and validated by using liquid chromatography and mass spectrometry.

[3] = target: T2, α2δ-1-Cav2.2 association (Mus musculus, UniProt O08532+O55017); experiment: Co-IP of α2δ-1 and Cav2.2 in mouse brain slices subjected to OGD; type: cell-based; details: 1 μM for 30 min
T2 construct: from tissue; host or cells: mouse brain slices subjected to OGD, membrane extracts
T2 sequence (O08532 25-956 limits assumed): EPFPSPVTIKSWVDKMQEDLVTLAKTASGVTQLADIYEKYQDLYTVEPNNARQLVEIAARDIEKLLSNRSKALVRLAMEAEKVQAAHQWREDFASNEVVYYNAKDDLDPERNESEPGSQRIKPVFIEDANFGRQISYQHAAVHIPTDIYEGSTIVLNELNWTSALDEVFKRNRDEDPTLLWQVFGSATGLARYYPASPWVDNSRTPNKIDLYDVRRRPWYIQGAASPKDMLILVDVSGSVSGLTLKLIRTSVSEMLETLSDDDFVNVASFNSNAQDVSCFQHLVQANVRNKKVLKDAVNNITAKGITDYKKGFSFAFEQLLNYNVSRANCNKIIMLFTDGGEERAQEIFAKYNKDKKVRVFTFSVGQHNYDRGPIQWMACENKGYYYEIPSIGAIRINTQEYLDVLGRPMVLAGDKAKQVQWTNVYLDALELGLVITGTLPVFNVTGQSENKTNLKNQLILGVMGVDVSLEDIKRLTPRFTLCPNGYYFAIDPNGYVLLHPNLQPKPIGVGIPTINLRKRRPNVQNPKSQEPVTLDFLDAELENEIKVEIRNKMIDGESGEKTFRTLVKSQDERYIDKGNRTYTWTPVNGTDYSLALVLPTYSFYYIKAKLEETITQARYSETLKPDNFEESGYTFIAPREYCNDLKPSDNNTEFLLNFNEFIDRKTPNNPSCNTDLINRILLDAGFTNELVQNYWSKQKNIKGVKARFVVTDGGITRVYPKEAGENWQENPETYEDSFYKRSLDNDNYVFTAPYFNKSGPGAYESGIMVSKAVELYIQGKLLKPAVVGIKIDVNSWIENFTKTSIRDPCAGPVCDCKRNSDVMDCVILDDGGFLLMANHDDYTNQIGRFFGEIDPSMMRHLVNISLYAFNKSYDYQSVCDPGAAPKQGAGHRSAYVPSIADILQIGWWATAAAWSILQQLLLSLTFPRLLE
T2 sequence (O55017 whole entry): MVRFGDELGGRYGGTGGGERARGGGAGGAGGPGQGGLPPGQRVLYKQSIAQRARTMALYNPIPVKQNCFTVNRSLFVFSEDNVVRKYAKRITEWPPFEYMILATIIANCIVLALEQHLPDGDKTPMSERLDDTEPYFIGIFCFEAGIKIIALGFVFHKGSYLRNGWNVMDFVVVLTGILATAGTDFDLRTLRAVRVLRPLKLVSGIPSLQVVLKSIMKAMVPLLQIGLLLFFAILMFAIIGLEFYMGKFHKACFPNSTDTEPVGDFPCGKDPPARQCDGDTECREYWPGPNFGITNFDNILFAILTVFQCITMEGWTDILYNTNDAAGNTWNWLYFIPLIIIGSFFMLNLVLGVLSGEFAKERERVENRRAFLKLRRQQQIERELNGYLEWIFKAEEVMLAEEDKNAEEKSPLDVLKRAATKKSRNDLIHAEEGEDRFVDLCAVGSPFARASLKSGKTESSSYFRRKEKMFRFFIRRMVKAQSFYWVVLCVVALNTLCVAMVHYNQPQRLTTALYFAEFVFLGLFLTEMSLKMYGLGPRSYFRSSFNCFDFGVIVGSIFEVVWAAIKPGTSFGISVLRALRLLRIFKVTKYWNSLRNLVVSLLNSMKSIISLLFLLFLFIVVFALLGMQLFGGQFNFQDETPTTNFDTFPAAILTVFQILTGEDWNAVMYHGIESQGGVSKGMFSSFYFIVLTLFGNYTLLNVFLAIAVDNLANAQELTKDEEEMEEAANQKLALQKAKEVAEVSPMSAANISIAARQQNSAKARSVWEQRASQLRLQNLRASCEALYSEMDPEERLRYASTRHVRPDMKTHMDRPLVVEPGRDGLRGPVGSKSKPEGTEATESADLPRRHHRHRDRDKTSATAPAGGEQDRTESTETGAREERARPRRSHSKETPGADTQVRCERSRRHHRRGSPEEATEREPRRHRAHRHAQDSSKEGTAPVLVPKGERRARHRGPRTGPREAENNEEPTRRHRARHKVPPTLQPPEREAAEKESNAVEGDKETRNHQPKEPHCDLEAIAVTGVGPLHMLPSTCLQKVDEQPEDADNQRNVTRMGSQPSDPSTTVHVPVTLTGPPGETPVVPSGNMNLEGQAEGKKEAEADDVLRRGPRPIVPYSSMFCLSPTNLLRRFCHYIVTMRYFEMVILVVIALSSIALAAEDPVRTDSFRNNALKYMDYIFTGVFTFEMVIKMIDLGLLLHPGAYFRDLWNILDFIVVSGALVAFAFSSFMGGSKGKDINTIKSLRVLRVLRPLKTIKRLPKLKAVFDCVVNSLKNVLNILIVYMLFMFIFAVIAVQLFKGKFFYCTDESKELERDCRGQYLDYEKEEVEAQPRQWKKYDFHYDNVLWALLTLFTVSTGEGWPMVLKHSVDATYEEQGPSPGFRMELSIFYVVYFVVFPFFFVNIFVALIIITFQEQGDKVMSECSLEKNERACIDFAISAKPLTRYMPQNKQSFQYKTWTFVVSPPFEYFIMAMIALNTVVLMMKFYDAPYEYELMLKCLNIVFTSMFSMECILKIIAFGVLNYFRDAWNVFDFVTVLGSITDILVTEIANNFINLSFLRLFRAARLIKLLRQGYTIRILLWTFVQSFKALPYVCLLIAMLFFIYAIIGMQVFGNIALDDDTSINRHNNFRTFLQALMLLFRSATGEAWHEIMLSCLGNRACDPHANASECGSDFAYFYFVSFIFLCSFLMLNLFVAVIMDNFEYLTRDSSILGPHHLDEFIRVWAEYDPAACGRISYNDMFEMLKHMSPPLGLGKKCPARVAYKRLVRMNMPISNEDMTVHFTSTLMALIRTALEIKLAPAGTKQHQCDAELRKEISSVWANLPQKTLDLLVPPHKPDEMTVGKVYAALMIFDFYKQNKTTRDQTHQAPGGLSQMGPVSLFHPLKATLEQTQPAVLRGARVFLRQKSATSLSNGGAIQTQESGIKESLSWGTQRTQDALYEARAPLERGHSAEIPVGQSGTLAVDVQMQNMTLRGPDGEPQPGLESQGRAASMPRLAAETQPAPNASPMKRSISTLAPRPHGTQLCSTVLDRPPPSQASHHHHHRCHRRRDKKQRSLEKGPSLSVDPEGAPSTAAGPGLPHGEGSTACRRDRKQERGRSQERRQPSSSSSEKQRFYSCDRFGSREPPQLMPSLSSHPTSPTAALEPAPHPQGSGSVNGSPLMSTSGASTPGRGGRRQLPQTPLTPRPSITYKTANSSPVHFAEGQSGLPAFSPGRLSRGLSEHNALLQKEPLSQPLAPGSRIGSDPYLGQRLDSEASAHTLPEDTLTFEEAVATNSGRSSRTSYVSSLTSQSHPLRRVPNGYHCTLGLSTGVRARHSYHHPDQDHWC
Method: FIGS. 22A-22D: α2δ-1-bound NMDARs contribute to brain injury and neurological deficit caused by MCAO in the brain. (A) Upper: Original gel images of coimmunoprecipitation (co-IP) analysis show the interaction between α2δ-1 and GluN1 in two samples from mouse brain tissues; Lower: Effect of α2δ-1Tat peptide (1 μM for 60 min) on the α2δ-1-GluN1 protein complex in mouse brain tissues (n=6 mice per group). (B) Representative gel images and quantification of co-IP analysis show the effect of OGD on the α2δ-1-GluN1 or α2δ-1-Cav2.2 association in mouse brain tissues (n=6 mice per group). IgG and input were used as negative and positive controls, respectively. (C) Original gel images and quantification of co-IP analysis show the effect of α2δ-1Tat peptide (P) and control peptide (C; both 1 μM for 30 min) on the α2δ-1-GluN1 or α2δ-1-Cav2.2 association in mouse brain slices subjected to OGD (O, n=6 mice per group). (D) Neurological severity scores (left) and representative TTC staining and quantification (right) of brain infarct volume in MCAO mice treated with α2δ-1Tat peptide or control peptide (both 200 μg/kg, i.p.) at 15 min before MCAO and immediately before reperfusion (n=8 mice per group). Data are shown as means±SEM. *p<0.05, **p<0.01 compared with the control peptide- or vehicle-treated group (paired Student's t-test for panels B-D and F; Mann-Whitney test for panel E). […]

[4] = system: surface GluN1, GluN2A, GluN2B; experiment: HEK293 cell membrane surface protein analysis (biotinylation); type: cell-based, rat; design: dose or concentration left out as unconfirmed; details: gabapentin for 60 min
Method: Isolation and analysis of HEK293 cell membrane surface proteins: HEK293 cells were transfected with GluN1-1a, GluN2A/GluN2B and/or α2δ-1 after they had grown to 80-90% confluence in 75-cm^2 culture flasks. Cell surface biotinylation was performed using the Pierce Cell Surface Protein Isolation Kit (#89881, Thermo Fisher Scientific) according to the manufacturer's instructions. Briefly, cells were incubated with Sulfo-NHS—SS-biotin, which covalently binds to primary amino groups of extracellular proteins at 4° C. with constant rotation for 30 min. Excess biotin was quenched with quenching solution (Chaplan et al., 1997). The cells were washed, harvested by gentle scraping and lysed using the provided lysis buffer in the cocktail of protease and phosphatase inhibitors (#78440, Thermo Fisher Scientific) for 30 min at 4° C. The lysates were then centrifuged for 2 min at 10,000×g at 4° C., and the clear supernatants were added to NeutrAvidin agarose and incubated for 60 min at 25° C. with end-over-end mixing. The unbound (unbiotinylated) proteins, representing the intracellular fraction, were separated from the captured surface proteins by centrifugation of the column. […] Protein bands were quantified using Image Studio software (version 3.1, LI-COR Biosciences).

Compound | pain hypersensitivity induced by Cacna2d1 overexpression (tactile and pressure withdrawal thresholds) [1] | pain hypersensitivity induced by Cacna2d1 overexpression (tactile and pressure withdrawal thresholds) ([1]; listed as a2d-1Tat peptide) | withdrawal thresholds in rats treated with the control vector ([1]; control vector rats, intrathecal injection) | increased protein levels of GluN1, GluN2A, GluN2B and α2δ-1 in spinal cord synaptosomes [2] | α2δ-1-Cav2.2 association in brain tissues subjected to OGD [3] | surface protein levels of GluN1, GluN2A and GluN2B increased by α2δ-1 coexpression [4]
YGRKKRRQRRRVSGLNPSLWSIFGLQFILLWLVSGSRHYLW (a2d1 peptide) [α2δ-1Tat peptide, 30-amino-acid peptide mimicking the C-terminal domain of α2δ-1 fused to the cell-penetrating peptide Tat] | attenuates | similarly reversed | had no effect | largely normalized | had no effect | 
NCC1(CC(=O)O)CCCCC1 [gabapentin] |  |  |  |  |  | normalized; also recorded: reversed
